Assay: Krafft temperature determination of dilute aqueous surfactant in a water bath (dissolution and frothing)
Type: physicochemical
Settings: 0.012% ceteth-10 phosphate, 0.017% dicetyl phosphate, 0.014% sodium cetostearyl sulfate in distilled water
Procedure: 0.0012 grams of ceteth-10 phosphate (Moravek Lot 671-144-000-A-20190821-JHO) was weighed into a 20 mL glass scintillation vial. 10.0113 grams of distilled water was added to the scintillation vial and the vial was tightly capped and placed in a water bath. […] The surfactant remained as waxy particles sedimented on the bottom of the vial. After equilibration at 53.0° C. for 435 minutes, ceteth-10 phosphate had dissolved and the sample frothed when shaken. The Krafft temperature of a 0.012% ceteth-10 phosphate aqueous solution was determined to be 53.0° C.
0.0019 grams of dicetyl phosphate (Sigma dihexadecyl phosphate lot STBH2863) was weighed into a 20 mL glass scintillation vial. 11.2262 grams of distilled water was added to the scintillation vial and the vial was tightly capped and placed in a water bath. […] After equilibration at 58.0° C. for 450 minutes, dicetyl phosphate had dissolved and the sample frothed when shaken. The Krafft temperature of a 0.017% dicetyl phosphate aqueous solution was determined to be 58.0° C.
0.0024 grams of sodium cetostearyl sulfate (BASF Lanette E Granules Lot 0021826181) was weighed into a 20 mL glass scintillation vial. 17.0763 grams of distilled water was added to the scintillation vial and the vial was tightly capped and placed in a water bath. […] The Krafft temperature of a 0.014% sodium cetostearyl sulfate aqueous solution was determined to be 41.0° C.

Work on “ceteth-10 phosphate [Ceteth - 10 phosphate]” yielded a Krafft Temperature of 53 °C.

Same assay, conditions: 0.012% ceteth-10 phosphate, 0.017% dicetyl phosphate, 0.014% sodium cetostearyl sulfate in distilled water; listed as ceteth-10 phosphate

For “ceteth-10 phosphate [Ceteth - 10 phosphate]”, the Krafft Temperature was 53 °C.

Assay: not given
Settings: commonly used anionic surfactants, table values; cited from earlier work

Compared with CCCCCCCCCCCCOS(=O)(=O)O.N [Ammonium lauryl sulfate (ALS), Ammonium lauryl sulfate], CCCCCCCCCCCCOS(=O)(=O)[O-].[Na+] [Sodium lauryl sulfate (SLS), Sodium lauryl sulfate] is higher in “Krafft Temperature” value: 10 °C for the first, 16.0 °C for the second.

Compared with CCCCCCCCCCCCCCCCOS(=O)(=O)[O-].[Na+] [Sodium cetyl sulfate], CCCCCCCCCCCCCCCCCCOS(=O)(=O)[O-].[Na+] [Sodium stearyl sulfate] is higher in “Krafft Temperature” value: 45.0 °C for the first, 56.0 °C for the second.

First: CCCCCCCCCCOS(=O)(=O)[O-].[Na+] [Sodium decyl sulfate]
Second: CCCCCCCCCCCCCCOS(=O)(=O)[O-].[Na+] [Sodium myristyl sulfate]
The “Krafft Temperature” value of the first is lower: 8.0 °C for the first, 30.0 °C for the second.

First: CCCCCCCCCCCCCCCCS(=O)(=O)[O-].[Na+] [Sodium hexadecyl sulfonate]
Second: CCCCCCCCCCCCCCS(=O)(=O)[O-].[Na+] [Sodium myristyl sulfonate]
The “Krafft Temperature” value of the first is higher: 57.0 °C for the first, 48.0 °C for the second.

Going from CCCCCCCCCCCCCC(=O)[O-].[Na+] [Sodium myristate] to CCCCCCCCCCCCCCCC(=O)[O-].[Na+] [Sodium palmitate], the “Krafft Temperature” value rises from 39 °C to 69 °C.

For CCCCCCCCCCCCCCCCCC(=O)[O-].[Na+] [Sodium stearate], the “Krafft Temperature” value is given as 71 °C.

In the case of “Sodium laureth sulfate [Sodium laureth sulfate (SLES)]”, the “Krafft Temperature” value is given as less than 0 °C.
